Consider 5 compounds from ChEMBL document CHEMBL4732257, “The optimization and characterization of functionalized sulfonamides derived from sulfaphenazole against Mycobacterium tuberculosis with reduced CYP 2C9 inhibition” (Bioorg Med Chem Lett, 2021).

Structures are written as SMILES. ≈ marks a conversion by molar mass, not a printed value. Where only a bound is given, the exact number is not on record here.

For orientation: MIC means the smallest concentration in the dilution series that meets the test's criterion for growth inhibition.

The assay deals with Mycobacterium tuberculosis. In words: Antitubercular activity against isoniazid,streptomycin,rifampicin,ethambutol,para-aminosalicylate,prothionamide,capreomycin-resistant Mycobacterium tuberculosis 14862 assessed as bacterial growth inhibition. The class given is functional.
Consider `COc1ccc(-n2nccc2NS(=O)(=O)c2ccc(N)cc2)cc1`, for which the MIC is 10.6 µg/mL (≈ 30.8 µM).

For the compound `Nc1ccc(S(=O)(=O)Nc2ccnn2-c2ccc(F)cc2)cc1`, the minimal inhibitory concentration (MIC) came to 10.9 µg/mL (≈ 32.7 µM).

With `Cc1ccc(-n2nccc2NS(=O)(=O)c2ccc(N)cc2)cc1`, the MIC stood at 11.9 µg/mL (≈ 36.3 µM).

For the compound `NNC(=O)c1ccncc1` [ISONIAZID], the MIC was > 10 µg/mL.

As for `Nc1ccc(S(=O)(=O)Nc2ccnn2-c2ccccc2)cc1` [SULFAPHENAZOLE], the minimal inhibitory concentration (MIC) came out at 12.6 µg/mL (≈ 40 µM).
